Assay results taken from US11739098B2 (BRISTOL-MYERS SQUIBB COMPANY, priority 2017, dated 2023).

How the values were obtained:
Format in all cases: cell-based
human TLR7 = biological target: T1, human TLR7 (Homo sapiens, UniProt Q9NYK1); test: TLR7 inhibition reporter assay (HEK-Blue cells, SEAP reporter, gardiquimod stimulation); details: HEK-Blue cells overexpressing human TLR7, SEAP reporter, gardiquimod 7.5 μM
T1 construct: host or cells: HEK-Blue cells (HEK293-derived reporter line)
T1 sequence (Q9NYK1 27-1049): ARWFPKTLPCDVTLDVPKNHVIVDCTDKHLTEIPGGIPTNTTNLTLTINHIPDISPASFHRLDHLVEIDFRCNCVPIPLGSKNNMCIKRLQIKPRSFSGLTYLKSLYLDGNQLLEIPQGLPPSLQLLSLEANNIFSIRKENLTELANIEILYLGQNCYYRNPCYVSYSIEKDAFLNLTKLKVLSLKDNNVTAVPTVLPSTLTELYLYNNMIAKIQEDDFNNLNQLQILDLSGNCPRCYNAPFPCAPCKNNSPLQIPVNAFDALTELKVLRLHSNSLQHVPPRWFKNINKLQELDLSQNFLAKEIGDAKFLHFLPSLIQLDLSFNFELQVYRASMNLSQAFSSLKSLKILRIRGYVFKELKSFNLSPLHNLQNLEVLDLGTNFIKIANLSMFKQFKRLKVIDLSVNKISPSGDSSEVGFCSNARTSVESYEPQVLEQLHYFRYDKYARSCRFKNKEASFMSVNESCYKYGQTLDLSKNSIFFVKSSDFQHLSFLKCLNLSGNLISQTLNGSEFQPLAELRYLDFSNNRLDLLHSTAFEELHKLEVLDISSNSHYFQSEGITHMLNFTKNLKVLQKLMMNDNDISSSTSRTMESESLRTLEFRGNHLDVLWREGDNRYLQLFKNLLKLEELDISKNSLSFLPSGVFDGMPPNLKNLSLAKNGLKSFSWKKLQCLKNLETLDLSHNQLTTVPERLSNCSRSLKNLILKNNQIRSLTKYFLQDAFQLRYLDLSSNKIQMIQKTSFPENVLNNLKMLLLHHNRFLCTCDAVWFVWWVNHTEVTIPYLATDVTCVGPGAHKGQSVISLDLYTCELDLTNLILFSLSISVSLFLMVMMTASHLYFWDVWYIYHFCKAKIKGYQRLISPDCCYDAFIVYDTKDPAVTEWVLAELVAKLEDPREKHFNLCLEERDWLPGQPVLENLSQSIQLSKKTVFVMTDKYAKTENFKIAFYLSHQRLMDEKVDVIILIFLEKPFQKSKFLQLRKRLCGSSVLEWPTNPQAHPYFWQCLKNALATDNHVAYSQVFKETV
Outline: (§1)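 Agonists (final): TLR7 gardiquimod 7.5 μM; TLR8 R848 15.9 μM; TLR9 ODN2006 5 nM. HEK-Blue reporter cells, 30 min RT compound pre-incubation, 0.05 nM–50 μM dose range, 22 h at 37 °C, colorimetric SEAP detection medium. % inhibition relative to agonist+DMSO and known-inhibitor wells.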

human TLR8 = biological target: T2, human TLR8 (Homo sapiens, UniProt Q9NR97); test: TLR8 inhibition reporter assay (HEK-Blue cells, SEAP reporter, R848 stimulation); details: HEK-Blue cells overexpressing human TLR8, SEAP reporter, R848 15.9 μM
T2 construct: host or cells: HEK-Blue cells (HEK293-derived reporter line)
T2 sequence (Q9NR97 27-1041): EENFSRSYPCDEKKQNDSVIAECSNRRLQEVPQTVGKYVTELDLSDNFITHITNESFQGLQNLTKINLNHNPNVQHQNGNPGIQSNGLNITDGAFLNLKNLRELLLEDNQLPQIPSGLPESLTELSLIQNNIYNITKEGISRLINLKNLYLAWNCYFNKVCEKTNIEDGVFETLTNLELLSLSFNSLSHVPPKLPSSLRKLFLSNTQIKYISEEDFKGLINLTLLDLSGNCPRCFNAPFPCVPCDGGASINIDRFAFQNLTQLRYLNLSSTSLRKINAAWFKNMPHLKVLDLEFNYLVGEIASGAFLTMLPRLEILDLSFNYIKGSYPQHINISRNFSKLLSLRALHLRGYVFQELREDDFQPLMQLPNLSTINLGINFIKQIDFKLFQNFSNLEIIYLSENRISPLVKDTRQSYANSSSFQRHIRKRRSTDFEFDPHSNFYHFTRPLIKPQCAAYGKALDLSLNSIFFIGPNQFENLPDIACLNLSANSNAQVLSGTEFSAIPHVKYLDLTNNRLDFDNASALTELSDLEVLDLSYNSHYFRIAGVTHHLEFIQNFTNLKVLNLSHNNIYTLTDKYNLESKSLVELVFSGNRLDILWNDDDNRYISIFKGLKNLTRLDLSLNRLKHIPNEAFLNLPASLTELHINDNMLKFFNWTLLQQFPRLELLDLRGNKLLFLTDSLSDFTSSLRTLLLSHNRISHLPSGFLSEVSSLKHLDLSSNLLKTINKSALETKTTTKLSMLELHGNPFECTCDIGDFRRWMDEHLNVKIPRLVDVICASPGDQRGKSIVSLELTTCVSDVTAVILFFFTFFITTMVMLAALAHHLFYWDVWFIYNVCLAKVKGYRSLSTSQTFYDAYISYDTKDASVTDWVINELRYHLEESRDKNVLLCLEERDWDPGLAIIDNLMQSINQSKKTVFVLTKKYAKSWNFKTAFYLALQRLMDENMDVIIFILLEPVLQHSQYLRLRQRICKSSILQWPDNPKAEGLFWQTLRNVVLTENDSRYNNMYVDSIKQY
Outline: as §1

human TLR9 = biological target: T3, human TLR9 (Homo sapiens, UniProt Q9NR96); test: TLR9 inhibition reporter assay (HEK-Blue cells, SEAP reporter, ODN2006 stimulation); details: HEK-Blue cells overexpressing human TLR9, SEAP reporter, ODN2006 5 nM
T3 construct: host or cells: HEK-Blue cells (HEK293-derived reporter line)
T3 sequence (Q9NR96 26-1032): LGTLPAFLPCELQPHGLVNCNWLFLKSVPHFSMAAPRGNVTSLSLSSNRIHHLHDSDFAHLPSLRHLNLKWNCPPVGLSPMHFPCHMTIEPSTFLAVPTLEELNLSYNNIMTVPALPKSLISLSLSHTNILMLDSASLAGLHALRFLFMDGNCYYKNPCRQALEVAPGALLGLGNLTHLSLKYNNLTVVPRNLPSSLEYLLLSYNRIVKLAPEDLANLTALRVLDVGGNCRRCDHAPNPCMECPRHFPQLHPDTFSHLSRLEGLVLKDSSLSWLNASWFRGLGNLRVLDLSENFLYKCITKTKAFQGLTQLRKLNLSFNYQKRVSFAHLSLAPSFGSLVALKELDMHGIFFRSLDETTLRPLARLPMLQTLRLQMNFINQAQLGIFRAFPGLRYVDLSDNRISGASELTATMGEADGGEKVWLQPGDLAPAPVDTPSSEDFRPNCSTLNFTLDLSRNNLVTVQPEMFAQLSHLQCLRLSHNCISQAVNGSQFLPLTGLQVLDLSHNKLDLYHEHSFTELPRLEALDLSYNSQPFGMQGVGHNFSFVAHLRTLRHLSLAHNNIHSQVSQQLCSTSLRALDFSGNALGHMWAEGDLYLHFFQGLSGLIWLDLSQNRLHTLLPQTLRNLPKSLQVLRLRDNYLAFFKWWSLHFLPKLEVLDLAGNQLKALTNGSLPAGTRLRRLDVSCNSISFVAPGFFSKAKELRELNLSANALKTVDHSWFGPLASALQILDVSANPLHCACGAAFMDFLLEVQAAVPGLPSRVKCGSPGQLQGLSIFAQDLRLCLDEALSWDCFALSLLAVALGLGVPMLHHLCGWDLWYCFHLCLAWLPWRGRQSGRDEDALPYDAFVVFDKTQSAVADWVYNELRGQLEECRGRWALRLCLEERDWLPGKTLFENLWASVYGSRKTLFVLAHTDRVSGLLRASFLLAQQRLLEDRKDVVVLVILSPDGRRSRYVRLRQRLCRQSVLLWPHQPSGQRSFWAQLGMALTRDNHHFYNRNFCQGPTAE
Outline: as §1

Cc1cc(-c2[nH]c3ccc(C4CCN(C(=O)CN(C)C)CC4)cc3c2C(C)C)cc2cncn12 [Example 531, 2-(dimethylamino)-1-(4-(3-isopropyl-2-(5-methylimidazo[1,5-a]pyridin-7-yl)-1H-indol-5-yl)piperidin-1-yl)ethan-1-one] showed an IC50 (human TLR7) of under 100 nM, an IC50 (human TLR8) of under 100 nM and an IC50 (human TLR9) of 100 to 1000 nM.
Cc1cc(-c2[nH]c3ccc(C4CCN(C5COC5)CC4)cc3c2C(C)C)cc2ncnn12 [Example 727, 7-(3-isopropyl-5-(1-(oxetan-3-yl)piperidin-4-yl)-1H-indol-2-yl)-5-methyl-[1,2,4]triazolo[1,5-a]pyridine] showed an IC50 (human TLR7) of under 100 nM, an IC50 (human TLR8) of under 100 nM and an IC50 (human TLR9) of 1000 to 50000 nM.
Cc1cc(-c2[nH]c3ccc(C4CCN(C(=O)CCN5CCOCC5)CC4)cc3c2C(C)C)cn2nnnc12 [Example 627, 1-(4-(3-isopropyl-2-(8-methyltetrazolo[1,5-a]pyridin-6-yl)-1H-indol-5-yl)piperidin-1-yl)-3-morpholinopropan-1-one] showed an IC50 (human TLR7) of under 100 nM, an IC50 (human TLR8) of under 100 nM and an IC50 (human TLR9) of 1000 to 50000 nM.
With CC(C)c1c(-c2ccc3nccn3c2)[nH]c2ccc(C3CCNCC3)cc12 [Example 188, 6-(3-isopropyl-5-(piperidin-4-yl)-1H-indol-2-yl)imidazo[1,2-a]pyridine] the IC50 (human TLR7) was under 100 nM, the IC50 (human TLR8) was 100 to 1000 nM and the IC50 (human TLR9) was 100 to 1000 nM.
Cc1cc(-c2[nH]c3ccc(C4CCN(C(=O)CN(C)C)CC4)cc3c2C(C)C)nc2scnc12 [Example 543, 2-(dimethylamino)-1-(4-(3-isopropyl-2-(7-methylthiazolo[5,4-b]pyridin-5-yl)-1H-indol-5-yl)piperidin-1-yl)ethan-1-one] gave an IC50 (human TLR7) of under 100 nM, an IC50 (human TLR8) of under 100 nM and an IC50 (human TLR9) of 1000 to 50000 nM.
COc1cc(-c2[nH]c3ccc(C4CCN(C(=O)CN(C)C)CC4)cc3c2C(C)C)cc2ncnn12 [Example 532, 2-(dimethylamino)-1-(4-(3-isopropyl-2-(5-methoxy-[1,2,4]triazolo[1,5-a]pyridin-7-yl)-1H-indol-5-yl)piperidin-1-yl)ethan-1-one] showed an IC50 (human TLR7) of under 100 nM, an IC50 (human TLR8) of under 100 nM and an IC50 (human TLR9) of 1000 to 50000 nM.
With Cc1cc2nnnn2cc1-c1[nH]c2ccc(C3CCN(CC(N)=O)CC3)cc2c1C(C)C [Example 315, 2-(4-(3-isopropyl-2-(7-methyltetrazolo[1,5-a]pyridin-6-yl)-1H-indol-5-yl)piperidin-1-yl)acetamide] the IC50 (human TLR7) was under 100 nM, the IC50 (human TLR8) was under 100 nM and the IC50 (human TLR9) was 1000 to 50000 nM.
With CC(C)c1c(-c2nc3cnccn3n2)[nH]c2ccc(C3CCNCC3)cc12 [Example 195, 2-(3-isopropyl-5-(piperidin-4-yl)-1H-indol-2-yl)-[1,2,4]triazolo[1,5-a]pyrazine] the IC50 (human TLR7) was 1000 to 50000 nM, the IC50 (human TLR8) was under 100 nM and the IC50 (human TLR9) was 1000 to 50000 nM.
With CC(C)c1c(-c2ccnc3[nH]ccc23)[nH]c2ccc(C3CCN(C(=O)CN(C)C)CC3)cc12 [Example 564, 2-(dimethylamino)-1-(4-(3-isopropyl-2-(1H-pyrrolo[2,3-b]pyridin-4-yl)-1H-indol-5-yl)piperidin-1-yl)ethan-1-one] the IC50 (human TLR7) was under 100 nM, the IC50 (human TLR8) was under 100 nM and the IC50 (human TLR9) was 1000 to 50000 nM.
CC(C)c1c(-c2cn3ccnc3cc2C(F)(F)F)[nH]c2ccc(C3CCN(CC(=O)N(C)C)CC3)cc12 [Example 427, 2-(4-(3-isopropyl-2-(7-(trifluoromethyl)imidazo[1,2-a]pyridin-6-yl)-1H-indol-5-yl)piperidin-1-yl)-N,N-dimethylacetamide] gave an IC50 (human TLR7) of 100 to 1000 nM, an IC50 (human TLR8) of under 100 nM and an IC50 (human TLR9) of 1000 to 50000 nM.
Work on CNCC(=O)N1CCC(c2ccc3[nH]c(-c4cc(F)c5nccn5c4)c(CC(F)F)c3c2)CC1 [Example 545, 1-(4-(3-(2,2-difluoroethyl)-2-(8-fluoroimidazo[1,2-a]pyridin-6-yl)-1H-indol-5-yl)piperidin-1-yl)-2-(methylamino)ethan-1-one] yielded an IC50 (human TLR7) of under 100 nM, an IC50 (human TLR8) of 1000 to 50000 nM and an IC50 (human TLR9) of 100 to 1000 nM.
Cc1cc(-c2[nH]c3ccc(C4CCN(C(=O)CN5CCS(=O)(=O)CC5)CC4)cc3c2C(C)C)cn2nnnc12 [Example 485, 2-(1,1-dioxidothiomorpholino)-1-(4-(3-isopropyl-2-(8-methyltetrazolo[1,5-a]pyridin-6-yl)-1H-indol-5-yl)piperidin-1-yl)ethan-1-one] was tested, and the IC50 (human TLR7) was under 100 nM, the IC50 (human TLR8) was under 100 nM and the IC50 (human TLR9) was over 50000 nM.
With CC(C)c1c(-c2ccn3cnnc3c2)[nH]c2ccc(C3CCN(C4COC4)CC3)cc12 [Example 736, 7-(3-isopropyl-5-(1-(oxetan-3-yl)piperidin-4-yl)-1H-indol-2-yl)-[1,2,4]triazolo[4,3-a]pyridine] the IC50 (human TLR7) was under 100 nM, the IC50 (human TLR8) was 100 to 1000 nM and the IC50 (human TLR9) was 1000 to 50000 nM.
Work on CNC(=O)CN1CCC(c2ccc3[nH]c(-c4cc(C)n5ccnc5c4)c(C(C)C)c3c2)CC1 [Example 355, 2-(4-(3-isopropyl-2-(5-methylimidazo[1,2-a]pyridin-7-yl)-1H-indol-5-yl)piperidin-1-yl)-N-methylacetamide] yielded an IC50 (human TLR7) of 100 to 1000 nM, an IC50 (human TLR8) of 100 to 1000 nM and an IC50 (human TLR9) of 100 to 1000 nM.
